Values after ≈ are worked out from the molar mass of the structure shown. “Also recorded” adds a separate entry of the source. Structures can show the parent of a compound that is named as a salt.
Experiments:
Sarcina lutea PCI1001 = test: Antibacterial activity, agar dilution method (Table 2-1); type: cell-based; settings: Micrococcus luteus, nutrient agar, 37° C., hydrochloride, read-out: Minimum inhibitory concentration
[1] = system: Bacillus subtilis NRRL B-558; test: as above; type: cell-based; settings: NRRLB558, nutrient agar, 37° C., hydrochloride, read-out: Minimum inhibitory concentration
[2] = system: Shigella flexneri 4bJS11811; test: as above; type: cell-based; settings: nutrient agar, 37° C., hydrochloride, read-out: Minimum inhibitory concentration
Source text: (§1) | Medium used: nutrient agar

Shigella sonnei JS11746 = test: as above; type: cell-based; settings: nutrient agar, 37° C., hydrochloride, read-out: Minimum inhibitory concentration
Source text: as §1

Salmonella typhi T-63 = test: as above; type: cell-based; settings: Salmonella enterica, read-out: Minimum inhibitory concentration
Candida Yu-1200 = test: Antibacterial activity, agar dilution method (Table 2-3); type: cell-based; settings: YU1200, nutrient agar + 1% glucose, 27° C., hydrochloride, read-out: Minimum inhibitory concentration
Candida krusei NI7492 = test: as above; type: cell-based; settings: Pichia kudriavzevii, nutrient agar + 1% glucose, 27° C., hydrochloride, read-out: Minimum inhibitory concentration
[3] = system: Saccharomyces cerrevisiae; test: as above; type: cell-based; settings: nutrient agar + 1% glucose, 27° C., hydrochloride, read-out: Minimum inhibitory concentration
[4] = system: Trichophyton mentagrophytes; test: as above; type: cell-based; settings: nutrient agar + 1% glucose, 27° C., hydrochloride, read-out: Minimum inhibitory concentration
[5] = system: Gram-positive and Gram-negative bacteria; test: Antibacterial activity, agar dilution method (summary in words); type: cell-based; settings: as the hydrochloride salt
mouse leukemia EL-4 = test: Effect on mouse leukemia EL-4; type: in vivo; settings: for rate of elongation of survival period: once a day for 9 days, C57 BL/6 mice, control 11.0 days
mouse Sarcoma 180 = test: Effect on Sarcoma 180; settings: for rate of elongation of survival period: once a day for 9 days, ICR mice, control 13.8 days
[6] = system: mouse Ehrlich ascites tumor; test: Effect on mouse Ehrlich ascites tumor; settings: for rate of elongation of survival period: once a day for 9 days, ICR mice, control 13.8 days
[7] = system: Aeromonas punctata IAM1646; test: Antibacterial activity, agar dilution method (Table 2-2); settings: Aeromonas caviae, IAM1646, read-out: Minimum inhibitory concentration
[8] = system: Aeromonas salmonecida ATCC 14174; test: as above; settings: ATCC14174, read-out: Minimum inhibitory concentration
Aeromonas sp. (KT-444) = test: as above; settings: read-out: Minimum inhibitory concentration
Pseudomonas lachrymans = test: as above; settings: read-out: Minimum inhibitory concentration
Solubility = type: physicochemical
[9] = Stability / hydroscopicity; type: physicochemical; settings: hydrochloride salt
[10] = Acute toxicity, intravenous; settings: mouse, in vivo

N=C(N)NCCCCC(O)CC(=O)NC(O)C(=O)NCCCCNCCCN (stereo not shown) [BMG162-aF2]
MIC (Sarcina lutea PCI1001): 100 µg/mL (≈ 248 µM) | MIC [1]: 100 µg/mL (≈ 248 µM) | MIC [2]: > 100 µg/mL | MIC (Shigella sonnei JS11746): > 100 µg/mL | MIC (Salmonella typhi T-63): > 100 µg/mL | MIC (Candida Yu-1200): > 100 µg/mL | MIC (Candida krusei NI7492): > 100 µg/mL | MIC [3]: > 100 µg/mL | MIC [4]: > 100 µg/mL | inhibitory activity against Gram-positive and Gram-negative bacteria [5]: only weak inhibitory activity; also recorded: weakly inhibits Gram positive and negative bacteria | rate of elongation of survival period (mouse leukemia EL-4; 0.313 mg/kg/day ip): 131 | rate of elongation of survival period (mouse leukemia EL-4; 0.625 mg/kg/day ip): 130 | rate of elongation of survival period (mouse leukemia EL-4; 1.25 mg/kg/day ip): 159 | rate of elongation of survival period (mouse leukemia EL-4; 2.5 mg/kg/day ip): 164 | rate of elongation of survival period (mouse leukemia EL-4; 5 mg/kg/day ip): 193 | effect on mouse leukemia EL-4 (mouse leukemia EL-4; hydrochloride, ip): remarkable effects of cure and elongation of survival period | rate of elongation of survival period (mouse Sarcoma 180; 1.56 mg/kg/day ip): 220 | rate of elongation of survival period (mouse Sarcoma 180; 3.13 mg/kg/day ip): 243 | rate of elongation of survival period (mouse Sarcoma 180; 6.25 mg/kg/day ip): 181 | rate of elongation of survival period (mouse Sarcoma 180; 12.5 mg/kg/day ip): > 279 | rate of elongation of survival period (mouse Sarcoma 180; 50 mg/kg/day ip): 53 | Toxic sign (mouse Sarcoma 180; 50, 12.5 and 6.25 mg/kg/day ip (footnote *)): Toxic sign appeared | effect on Sarcoma 180 (mouse Sarcoma 180; hydrochloride, ip): remarkable effects of cure and elongation of survival period; also recorded: showed an effect against a transplanted tumor | rate of elongation of survival period ([6]; 1.56 mg/kg/day ip): 133 | rate of elongation of survival period ([6]; 3.13 mg/kg/day ip): 188 | rate of elongation of survival period ([6]; 6.25 mg/kg/day ip): 236 | rate of elongation of survival period ([6]; 12.5 mg/kg/day ip): 170 | rate of elongation of survival period ([6]; 25 mg/kg/day ip): 72 | rate of elongation of survival period ([6]; 50 mg/kg/day ip): 54 | Toxic sign ([6]; 50, 25 and 12.5 mg/kg/day ip (footnote *)): Toxic sign appeared | effect on Ehrlich ascites tumor ([6]; hydrochloride, ip): remarkable effects of cure and elongation of survival period; also recorded: showed an effect against a transplanted tumor | MIC [7]: > 100 µg/mL | MIC [8]: > 100 µg/mL | MIC (Aeromonas sp. (KT-444)): > 100 µg/mL | MIC (Pseudomonas lachrymans): 50 µg/mL (≈ 124 µM)

N=C(N)NCCCCC(O)CC(=O)NC(O)C(=O)NCCCCNCCCN (stereo not shown) [BMG162-aF2 hydrochloride]
solubility (Solubility; benzene): only slightly soluble or insoluble | solubility (Solubility; chloroform): only slightly soluble or insoluble | solubility (Solubility; ethanol): only slightly soluble or insoluble | solubility (Solubility; ethyl acetate): only slightly soluble or insoluble | solubility (Solubility; methanol): easily soluble | solubility (Solubility; water): easily soluble | hydroscopicity [9]: so hydroscopic that it forms a hydrate | LD50 [10]: > 80 mg/kg
